According to the supplement of paper PMC11208160:

Assay: recombinant UMI read abundance after kanamycin selection (control-corrected) (log10(CPM+1)); higher = more efficient recombination; extreme values may be limits of the assay; sequences stand for … in AGTGCAGAGAAAATCGGCCAGTTTTCTCTGCCTGCAGTCCGCATGCCGTGGGACCCCTTGGGTTCTAACCTGTTGCCTAGATTTATGCAGCGGACTGCCTTTCTCCCAAAGTGATAAACCGG…AGGTTGGTTTCACT; site = the 11-nt donor
Procedure, shortened: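 In Escherichia coli, a pool of donor and donor-binding-loop pairs, each with a 12-nt UMI, was tested for the IS621 bridge recombinase. Plating was on IPTG (0.07 mM) plus kanamycin, or without selection, in two replicates. Recombinant UMIs were amplified by PCR across the donor–target junction and sequenced, and counts were reported as log10(CPM+1) after averaging and control-derived scaling.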
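Further: IS621 bridge recombinase in Escherichia coli cells against a fixed T5 target plasmid.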

Sequence	recombinant UMI read abundance (log10)
CGGGAACCATGGACCGGTTTTCCCGGTAATCCGTATTTGAT (site CGGGAACCTAA)	0.00496
CGGGAACCATGGACCGGTTTTCCCGGTAATCCGTATTTGAT (site CGGGAACCTAC)	0.0116
CGGGAACCATGGACCGGTTTTCCCGGTAATCCGTATTTGAT (site CGGGAACCTAG)	0
CGGGAACCATGGACCGGTTTTCCCGGTAATCCGTATTTGAT (site CGGGAACCTAT)	0
CGGGAACCATGGACCGGTTTTCCCGGTAATCCGTATTTGAT (site CGGGAACCTCT)	0
CGGGAACCATGGACCGGTTTTCCCGGTAATCCGTATTTGAT (site CGGGAACCTGT)	0
CGGGAACCATGGACCGGTTTTCCCGGTAATCCGTATTTGAT (site CGGGAACCTTT)	0.00554
CGGGAACCATGGACCGGTTTTCCCGGTAATCCGTATTTGAT (site CGGGAAGCTAT)	0
CGGGAACCATGGACCGGTTTTCCCGGTAATCCGTATTTGAT (site CGGGAATCTAT)	0
CGGGAACCATGGACCGGTTTTCCCGGTAATCCGTATTTGAT (site CGGGACCCTAT)	0.0207
CGGGAACCATGGACCGGTTTTCCCGGTAATCCGTATTTGAT (site CGGGAGCCTAT)	0
CGGGAACCATGGACCGGTTTTCCCGGTAATCCGTATTTGAT (site CGGGATCCTAT)	0
CGGGAACCATGGACCGGTTTTCCCGGTAATCCGTATTTGAT (site CGGGCACCTAT)	0.021
CGGGAACCATGGACCGGTTTTCCCGGTAATCCGTATTTGAT (site CGGGGACCTAT)	0
CGGGAACCATGGACCGGTTTTCCCGGTAATCCGTATTTGAT (site CGGGTACCTAT)	0
CGGGAACCATGGACCGGTTTTCCCGGTAATCCGTATTTGAT (site CGGTAACCTAT)	0
CGGGAACCATGGACCGGTTTTCCCGGTAATCCGTATTTGAT (site CGTGAACCTAT)	0
CGGGAACCATGGACCGGTTTTCCCGGTAATCCGTATTTGAT (site CTGGAACCTAT)	0
CGGGAACCATGGACCGGTTTTCCCGGTAATCCGTATTTGAT (site GGGGAACCTAT)	0
CGGGAACCATGGACCGGTTTTCCCGGTAATCCGTATTTGAT (site TGGGAACCTAT)	0
CGGGAACCATGGACCGGTTTTCCCGGTAATCCGTATTTGGT (site CGGGAACCTAA)	0.0297
CGGGAACCATGGACCGGTTTTCCCGGTAATCCGTATTTGGT (site CGGGAACCTAC)	0
CGGGAACCATGGACCGGTTTTCCCGGTAATCCGTATTTGGT (site CGGGAACCTAG)	0
CGGGAACCATGGACCGGTTTTCCCGGTAATCCGTATTTGGT (site CGGGAACCTAT)	0
CGGGAAGCATGGACCGGTTTTCCCGGTAATCCGTATTTGAT (site CGGGAAACTAT)	1.7

Sequence	recombinant UMI read abundance (log10)
CGGGAAGCATGGACCGGTTTTCCCGGTAATCCGTATTTGAT (site CGGGAACCTAT)	0
CGGGAAGCATGGACCGGTTTTCCCGGTAATCCGTATTTGAT (site CGGGAAGCTAT)	1.9
CGGGAAGCATGGACCGGTTTTCCCGGTAATCCGTATTTGAT (site CGGGAATCTAT)	1.85
CGGGAATCATGGACCGGTTTTCCCGGTAATCCGTATTTGCC (site CGGGAATCTGG)	2.51
CGGGAATCATGGACCGGTTTTCCCGGTAATCCGTATTTGCC (site CGGGACTCTGG)	1.28
CGGGAATCATGGACCGGTTTTCCCGGTAATCCGTATTTGCC (site CGGGAGTCTGG)	2.11
CGGGAATCATGGACCGGTTTTCCCGGTAATCCGTATTTGCC (site CGGGATTCTGG)	0.646
CGGGACCCATGGACCGGTTTTCCCGGTAATCCGTATTTGAT (site CGGGAACCTAT)	0.00853
CGGGACCCATGGACCGGTTTTCCCGGTAATCCGTATTTGAT (site CGGGACCCTAT)	0.879
CGGGACCCATGGACCGGTTTTCCCGGTAATCCGTATTTGAT (site CGGGAGCCTAT)	0.00629
CGGGACCCATGGACCGGTTTTCCCGGTAATCCGTATTTGAT (site CGGGATCCTAT)	0
CGGGACGCATGGACCGGTTTTCCCGGTAATCCGTATTTGTA (site CGGGACGCTTA)	2.82
CGGGACTCATGGACCGGTTTTCCCGGTAATCCGTATTTGCC (site CGGGAATCTGG)	2.14
CGGGACTCATGGACCGGTTTTCCCGGTAATCCGTATTTGCC (site CGGGACTCTGG)	3.01
CGGGACTCATGGACCGGTTTTCCCGGTAATCCGTATTTGCC (site CGGGAGTCTGG)	0
CGGGACTCATGGACCGGTTTTCCCGGTAATCCGTATTTGCC (site CGGGATTCTGG)	1.77
CGGGAGTCATGGACCGGTTTTCCCGGTAATCCGTATTTGCA (site CGGGAGTCTAG)	1.74
CGGGAGTCATGGACCGGTTTTCCCGGTAATCCGTATTTGCA (site CGGGAGTCTCG)	2.73
CGGGAGTCATGGACCGGTTTTCCCGGTAATCCGTATTTGCA (site CGGGAGTCTGG)	1.15
CGGGAGTCATGGACCGGTTTTCCCGGTAATCCGTATTTGCA (site CGGGAGTCTTG)	2.89
CGGGCGTCATGGACCGGTTTTCCCGGTAATCCGTATTTGCC (site CGGGAGTCTGG)	0
CGGGCGTCATGGACCGGTTTTCCCGGTAATCCGTATTTGCC (site CGGGCGTCTGG)	2.89
CGGGCGTCATGGACCGGTTTTCCCGGTAATCCGTATTTGCC (site CGGGGGTCTGG)	0
CGGGCGTCATGGACCGGTTTTCCCGGTAATCCGTATTTGCC (site CGGGTGTCTGG)	0
CGGGGAACATGGACCGGTTTTCCCGGTAATCCGTATTTGTT (site CGAGGAACTAA)	2.44

Sequence	recombinant UMI read abundance (log10)
CGGGGAACATGGACCGGTTTTCCCGGTAATCCGTATTTGTT (site CGCGGAACTAA)	0.00411
CGGGGAACATGGACCGGTTTTCCCGGTAATCCGTATTTGTT (site CGGGGAACTAA)	2.6
CGGGGAACATGGACCGGTTTTCCCGGTAATCCGTATTTGTT (site CGTGGAACTAA)	0.548
CGGGTACCATGGACCGGTTTTCCCGGTAATCCGTATTTGTA (site CGGGTACCTTA)	0.00704
CGGGTCACATGGACCGGTTTTCCCGGTAATCCGTATTTGGC (site CGGGTCACTGC)	3.54
CGGGTGTCATGGACCGGTTTTCCCGGTAATCCGTATTTGCC (site CGGGAGTCTGG)	0.659
CGGGTGTCATGGACCGGTTTTCCCGGTAATCCGTATTTGCC (site CGGGCGTCTGG)	1.74
CGGGTGTCATGGACCGGTTTTCCCGGTAATCCGTATTTGCC (site CGGGGGTCTGG)	0
CGGGTGTCATGGACCGGTTTTCCCGGTAATCCGTATTTGCC (site CGGGTGTCTGG)	2.69
CGGGTTCCATGGACCGGTTTTCCCGGTAATCCGTATTTGTT (site CGGAATCCTAA)	0.00595
CGGGTTCCATGGACCGGTTTTCCCGGTAATCCGTATTTGTT (site CGGGTTCCTAA)	0.776
CGGTAACCATGGACCGGTTTTCCCGGTAATCCGTATTTGAT (site CGGAAACCTAT)	0
CGGTAACCATGGACCGGTTTTCCCGGTAATCCGTATTTGAT (site CGGCAACCTAT)	0.00415
CGGTAACCATGGACCGGTTTTCCCGGTAATCCGTATTTGAT (site CGGGAACCTAT)	0
CGGTAACCATGGACCGGTTTTCCCGGTAATCCGTATTTGAT (site CGGTAACCTAT)	0
CGGTAGACATGGACCGGTTTTCCCGGTAATCCGTATTTGCA (site AGGAAGACTTG)	0
CGGTAGACATGGACCGGTTTTCCCGGTAATCCGTATTTGCA (site CGGTAGACTTG)	2.84
CGGTAGCCATGGACCGGTTTTCCCGGTAATCCGTATTTGCT (site CGGTAGCCTAG)	0.793
CGGTATCCATGGACCGGTTTTCCCGGTAATCCGTATTTGTT (site CGGAATCCTAA)	0
CGGTATCCATGGACCGGTTTTCCCGGTAATCCGTATTTGTT (site CGGCATCCTAA)	0.493
CGGTATCCATGGACCGGTTTTCCCGGTAATCCGTATTTGTT (site CGGGATCCTAA)	0.0113
CGGTATCCATGGACCGGTTTTCCCGGTAATCCGTATTTGTT (site CGGTATCCTAA)	0.562
CGGTCGTCATGGACCGGTTTTCCCGGTAATCCGTATTTGCA (site CGGTCGTCTTG)	1.71
CGGTGGCCATGGACCGGTTTTCCCGGTAATCCGTATTTGGG (site CGGTGGCCTCC)	0.0062
CGGTTATCATGGACCGGTTTTCCCGGTAATCCGTATTTGCT (site CGATCATCTAG)	0
